Publication PMC10465233, “Lys-urea-Aad, Lys-urea-Cmc and Lys-urea-Cms as potential pharmacophores for the design of PSMA-targeted radioligands to reduce off-target uptake in kidneys and salivary glands” (Theranostics, 2023)
Several values for one entry are separate records, joined by “and”; a condition that tells them apart may be missing. Equal values may be shown once.

Tested on: LNCaP tumor-bearing mice
Experiment: Ex vivo biodistribution in LNCaP tumor-bearing mice
Parameters: species or system mouse
Settings: for Time of peak tumor uptake: post-injection
Experimental: Imaging, biodistribution and radioligand therapy experiments were performed following previously published procedures using male NOD-scid IL2Rg^null (NSG) or NOD.Cg-Rag1^tm1MomIl2rg^tm1Wjl/SzJ (NRG) mice [10]-[12],[14]-[15]. The experiments were conducted according to the guidelines established by the Canadian Council on Animal Care and approved by Animal Ethics Committee of the University of British Columbia. The mice were briefly sedated by inhalation of 2% isoflurane in oxygen, and implanted subcutaneously with 1×10^7 LNCaP cells behind the left shoulder. The mice were imaged or used in biodistribution studies when the tumor grew to 5-8 mm in diameter over a period of 4-5 weeks.
For biodistribution studies, the mice were injected with the radioligand (2-4 MBq) as described above. For blocking, the mice were co-injected with nonradioactive DCFPyL (0.5 mg). At predetermined time points, the mice were sedated by isoflurane inhalation and euthanized by CO2 inhalation. Blood was withdrawn by cardiac puncture, and organs/tissues of interest were collected, weighed and counted using an automatic gamma counter (Tables S4-S7).

Structure (SMILES): COc1ccc(CCCC(=O)NCC(=O)N[C@@H](CCCCNC(=O)CN2CCN(CC(=O)[O-])CCN(CC(=O)[O-])CCN(CC(=O)[O-])CC2)C(=O)NC[C@H]2CC[C@H](C(=O)N[C@@H](Cc3c4ccccc4cc4ccccc34)C(=O)NCCCC[C@H](NC(=O)N[C@@H](COCC(=O)O)C(=O)O)C(=O)O)CC2)cc1.[177Lu+3] [[^177Lu]Lu-HTK04028]
- Adrenal glands uptake (1 h post-injection): 3.25 ± 0.34 %ID/g
- Blood uptake (1 h post-injection): 17.7 ± 2.10 %ID/g
- Blood:Salivary gland uptake ratio (1 h post-injection): 6.93 ± 0.33
- Bone uptake (1 h post-injection): 0.99 ± 0.21 %ID/g
- Brain uptake (1 h post-injection): 0.26 ± 0.03 %ID/g
- Fat uptake (1 h post-injection): 1.26 ± 0.21 %ID/g
- Heart uptake (1 h post-injection): 4.15 ± 0.31 %ID/g
- Intestines uptake (1 h post-injection): 1.23 ± 0.24 %ID/g
- Kidneys uptake (1 h post-injection): 8.30 ± 1.58 %ID/g
- Lacrimal glands uptake (1 h post-injection): 0.51 ± 0.23 %ID/g
- Liver uptake (1 h post-injection): 2.93 ± 0.51 %ID/g
- Lungs uptake (1 h post-injection): 7.88 ± 1.77 %ID/g
- Muscle uptake (1 h post-injection): 1.32 ± 0.19 %ID/g
- Pancreas uptake (1 h post-injection): 1.53 ± 0.22 %ID/g
- Salivary glands uptake (1 h post-injection): 2.55 ± 0.21 %ID/g
- Spleen uptake (1 h post-injection): 1.53 ± 0.23 %ID/g
- Stomach uptake (1 h post-injection): 0.51 ± 0.18 %ID/g
- Testes uptake (1 h post-injection): 2.26 ± 0.46 %ID/g
- Thyroid uptake (1 h post-injection): 3.30 ± 0.42 %ID/g
- Tumor uptake (1 h post-injection): 19.0 ± 5.86 %ID/g
- Tumor:Blood uptake ratio (1 h post-injection): 1.11 ± 0.45
- Tumor:Kidney uptake ratio (1 h post-injection): 2.39 ± 0.99
- Tumor:Muscle uptake ratio (1 h post-injection): 14.5 ± 4.46
- Tumor:Salivary gland uptake ratio (1 h post-injection): 7.60 ± 2.89
- Adrenal glands uptake (4 h post-injection): 2.18 ± 0.33 %ID/g
- Blood uptake (4 h post-injection): 12.2 ± 1.66 %ID/g
- Blood:Salivary gland uptake ratio (4 h post-injection): 7.09 ± 1.45
- Bone uptake (4 h post-injection): 0.63 ± 0.10 %ID/g
- Brain uptake (4 h post-injection): 0.19 ± 0.02 %ID/g
- Fat uptake (4 h post-injection): 0.89 ± 0.24 %ID/g
- Heart uptake (4 h post-injection): 2.67 ± 0.31 %ID/g
- Intestines uptake (4 h post-injection): 1.04 ± 0.12 %ID/g
- Kidneys uptake (4 h post-injection): 9.21 ± 2.76 %ID/g
- Lacrimal glands uptake (4 h post-injection): 0.39 ± 0.19 %ID/g
- Liver uptake (4 h post-injection): 2.29 ± 0.55 %ID/g
- Lungs uptake (4 h post-injection): 5.79 ± 0.44 %ID/g
- Muscle uptake (4 h post-injection): 0.83 ± 0.09 %ID/g
- Pancreas uptake (4 h post-injection): 1.24 ± 0.04 %ID/g
- Salivary glands uptake (4 h post-injection): 1.75 ± 0.25 %ID/g
- Spleen uptake (4 h post-injection): 1.44 ± 0.31 %ID/g
- Stomach uptake (4 h post-injection): 0.45 ± 0.06 %ID/g
- Testes uptake (4 h post-injection): 2.66 ± 0.41 %ID/g
- Thyroid uptake (4 h post-injection): 2.30 ± 0.30 %ID/g
- Tumor uptake (4 h post-injection): 42.6 ± 11.6 %ID/g
- Tumor:Blood uptake ratio (4 h post-injection): 3.60 ± 1.24
- Tumor:Kidney uptake ratio (4 h post-injection): 4.89 ± 1.58
- Tumor:Muscle uptake ratio (4 h post-injection): 52.2 ± 17.4
- Tumor:Salivary gland uptake ratio (4 h post-injection): 24.5 ± 5.95
- Adrenal glands uptake (24 h post-injection): 0.73 ± 0.13 %ID/g
- Blood uptake (24 h post-injection): 0.82 ± 0.11 %ID/g
- Blood:Salivary gland uptake ratio (24 h post-injection): 1.88 ± 0.42
- Bone uptake (24 h post-injection): 0.11 ± 0.02 %ID/g
- Brain uptake (24 h post-injection): 0.02 ± 0.00 %ID/g
- Fat uptake (24 h post-injection): 0.14 ± 0.02 %ID/g
- Heart uptake (24 h post-injection): 0.36 ± 0.03 %ID/g
- Intestines uptake (24 h post-injection): 0.23 ± 0.05 %ID/g
- Kidneys uptake (24 h post-injection): 4.32 ± 0.58 %ID/g
- Lacrimal glands uptake (24 h post-injection): 0.05 ± 0.04 %ID/g
- Liver uptake (24 h post-injection): 0.54 ± 0.09 %ID/g
- Lungs uptake (24 h post-injection): 1.08 ± 0.72 %ID/g
- Muscle uptake (24 h post-injection): 0.11 ± 0.02 %ID/g
- Pancreas uptake (24 h post-injection): 0.15 ± 0.02 %ID/g
- Salivary glands uptake (24 h post-injection): 0.45 ± 0.10 %ID/g
- Spleen uptake (24 h post-injection): 0.48 ± 0.14 %ID/g
- Stomach uptake (24 h post-injection): 0.31 ± 0.10 %ID/g
- Testes uptake (24 h post-injection): 0.55 ± 0.05 %ID/g
- Thyroid uptake (24 h post-injection): 0.52 ± 0.08 %ID/g
- Tumor uptake (24 h post-injection): 30.2 ± 2.74 %ID/g
- Tumor:Blood uptake ratio (24 h post-injection): 37.2 ± 4.22
- Tumor:Kidney uptake ratio (24 h post-injection): 7.06 ± 0.86
- Tumor:Muscle uptake ratio (24 h post-injection): 275 ± 35.3
- Tumor:Salivary gland uptake ratio (24 h post-injection): 69.3 ± 15.8
- Adrenal glands uptake (72 h post-injection): 0.48 ± 0.17 %ID/g
- Blood uptake (72 h post-injection): 0.05 ± 0.01 %ID/g
- Blood:Salivary gland uptake ratio (72 h post-injection): 0.26 ± 0.06
- Bone uptake (72 h post-injection): 0.05 ± 0.02 %ID/g
- Brain uptake (72 h post-injection): 0.01 ± 0.00 %ID/g
- Fat uptake (72 h post-injection): 0.06 ± 0.02 %ID/g
- Heart uptake (72 h post-injection): 0.12 ± 0.03 %ID/g
- Intestines uptake (72 h post-injection): 0.07 ± 0.03 %ID/g
- Kidneys uptake (72 h post-injection): 1.77 ± 0.25 %ID/g
- Lacrimal glands uptake (72 h post-injection): 0.01 ± 0.01 %ID/g
- Liver uptake (72 h post-injection): 0.22 ± 0.02 %ID/g
- Lungs uptake (72 h post-injection): 0.18 ± 0.02 %ID/g
- Muscle uptake (72 h post-injection): 0.03 ± 0.01 %ID/g
- Pancreas uptake (72 h post-injection): 0.05 ± 0.01 %ID/g
- Salivary glands uptake (72 h post-injection): 0.19 ± 0.05 %ID/g
- Spleen uptake (72 h post-injection): 0.49 ± 0.16 %ID/g
- Stomach uptake (72 h post-injection): 0.07 ± 0.07 %ID/g
- Testes uptake (72 h post-injection): 0.31 ± 0.05 %ID/g
- Thyroid uptake (72 h post-injection): 0.24 ± 0.04 %ID/g
- Tumor uptake (72 h post-injection): 26.1 ± 7.29 %ID/g
- Tumor:Blood uptake ratio (72 h post-injection): 550 ± 108
- Tumor:Kidney uptake ratio (72 h post-injection): 14.6 ± 2.72
- Tumor:Muscle uptake ratio (72 h post-injection): 886 ± 181
- Tumor:Salivary gland uptake ratio (72 h post-injection): 144 ± 35.6
- Adrenal glands uptake (120 h post-injection): 0.33 ± 0.05 %ID/g
- Blood uptake (120 h post-injection): 0.02 ± 0.00 %ID/g
- Blood:Salivary gland uptake ratio (120 h post-injection): 0.17 ± 0.04
- Bone uptake (120 h post-injection): 0.04 ± 0.02 %ID/g
- Fat uptake (120 h post-injection): 0.03 ± 0.01 %ID/g
- Heart uptake (120 h post-injection): 0.07 ± 0.01 %ID/g
- Intestines uptake (120 h post-injection): 0.08 ± 0.05 %ID/g
- Kidneys uptake (120 h post-injection): 1.16 ± 0.13 %ID/g
- Liver uptake (120 h post-injection): 0.16 ± 0.02 %ID/g
- Lungs uptake (120 h post-injection): 0.09 ± 0.01 %ID/g
- Muscle uptake (120 h post-injection): 0.02 ± 0.00 %ID/g
- Pancreas uptake (120 h post-injection): 0.03 ± 0.00 %ID/g
- Salivary glands uptake (120 h post-injection): 0.11 ± 0.03 %ID/g
- Spleen uptake (120 h post-injection): 0.54 ± 0.15 %ID/g
- Stomach uptake (120 h post-injection): 0.10 ± 0.10 %ID/g
- Testes uptake (120 h post-injection): 0.22 ± 0.01 %ID/g
- Thyroid uptake (120 h post-injection): 0.13 ± 0.02 %ID/g
- Tumor uptake (120 h post-injection): ~ 28 %ID/g
- Tumor:Blood uptake ratio (120 h post-injection): 1714 ± 320
- Tumor:Kidney uptake ratio (120 h post-injection): 24.9 ± 5.16
- Tumor:Muscle uptake ratio (120 h post-injection): 1825 ± 415
- Tumor:Salivary gland uptake ratio (120 h post-injection): 284 ± 87.9
- Tumor uptake (120 h post-injection, listed as [177Lu]Lu-HTK04028): 28.4 ± 5.11 %ID/g
- Peaked average tumor uptake (peak over 1-120 h post-injection): ~ 43 %ID/g and 42.6 %ID/g
- Time of peak tumor uptake: 4 h
- Time of peak tumor uptake (listed as 177Lu-labeled HTK04028): 4 to 24 h
